{"source": "patent US20220017863A1", "about": "“SIRT2-ABLATED CHIMERIC T CELLS” (H. Lee Moffitt Cancer Center and Research Institute, Inc., priority 2019, published 2022)", "assay_type_in_all_cases": "cell-based", "key": {"[1]": {"biological_target": "T1, Sirt2 deacetylase activity (Homo sapiens, UniProt Q8IXJ6)", "T1 construct": "endogenous in cells; host or cells: human CD3+ T cells enriched from PBMC of healthy donors", "T1 sequence (Q8IXJ6 1-389)": "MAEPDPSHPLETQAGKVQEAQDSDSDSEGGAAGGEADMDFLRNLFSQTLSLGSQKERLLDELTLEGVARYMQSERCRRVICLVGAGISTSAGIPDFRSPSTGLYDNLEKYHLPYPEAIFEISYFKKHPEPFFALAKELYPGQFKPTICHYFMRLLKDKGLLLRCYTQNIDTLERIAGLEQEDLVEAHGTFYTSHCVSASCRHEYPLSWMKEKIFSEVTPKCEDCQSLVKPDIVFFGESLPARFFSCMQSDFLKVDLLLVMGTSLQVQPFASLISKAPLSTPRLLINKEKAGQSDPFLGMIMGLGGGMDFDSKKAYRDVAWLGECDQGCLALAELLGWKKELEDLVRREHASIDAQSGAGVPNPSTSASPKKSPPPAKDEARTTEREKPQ", "test": "Western blot of acetylated α-tubulin in human CD3+ enriched T cells", "conditions": "48 hr", "experimental": "(§1) Human peripheral blood mononuclear cells (PBMC) were obtained from healthy donors by density gradient centrifugation using Ficoll-Paque™ PLUS Media (GE Healthcare). CD3^+ lymphocytes were negatively enriched using human Pan T cell isolation Kit™ (Miltenyi Biotec).\nWhole cell lysates were prepared using lysis buffer (Pierce RIPA buffer, ThermoFisher Scientific) supplemented with cOmplete™ Protease Inhibitor Cocktail and PhosSTOP Phosphatase Inhibitor (Roche Applied Science).\nCell lysates (20 ug) or IP samples were loaded onto 10% SDS-PAGE and separated by electrophoresis followed by semi-dry transfer into polyvinylidene fluoride membranes (Immun-Blot PVDF membrane, Bio-Rad) using Trans-Blot Turbo transfer system (Bio-Rad). After transfer, the membranes were blocked at room temperature with Tris-buffered saline (TBS) containing 0.05% Tween-20 (TBST) and 5% (w/v) milk for 1 h and then incubated overnight at 4° C. with a specific primary antibody (indicated below). […] After washing 3 times with TBST, bound antibodies were detected by chemiluminescence using the Pierce™ ECL Western Blotting Substrate and the Super Signal West Femto Maximum Sensitivity Substrate kits (ThermoFisher Scientific). […]"}, "human CD3+ T cells [2]": {"tested_on": "human CD3+ T cells", "test": "IFN-γ ELISPOT on human CD3+ T cells from healthy donors", "conditions": "inhibitor vs vehicle, 48 hr"}, "human TILs": {"tested_on": "human TILs", "test": "IFN-γ ELISPOT on human TILs from NSCLC patients", "conditions": "AGK2 vs vehicle, 5 patient samples"}, "human CD3+ T cells [3]": {"tested_on": "human CD3+ T cells", "test": "Seahorse extracellular flux analysis of CD3-stimulated human CD3+ T cells from healthy donors", "conditions": "anti-CD3 plus inhibitor vs vehicle, 48 hr", "experimental": "as §1\nExtracellular acidification rates (ECAR) were measured using the Seahorse XF analyzer (Agilent). Glycolysis Stress Test (GST) and glycolytic rate assay (GRA) were performed according to kit manufacturer's instructions.\nThe day of the assay, 2×10^5 activated T cells were plated in Cell-Tak (Corning)-coated XF96 plates in XF media (XF RPMI Medium pH 7.4 containing 2 mM L-glutamine only for GST or supplemented with 10 mM glucose, 2 mM L-glutamine and 1 mM sodium pyruvate for GRA test, all from Agilent technologies) via centrifugation to ensure cell attachment. Cells were equilibrated for 1 hour in a non-CO2 incubator before starting the assay.\nFor GST, ECAR was measured under basal conditions and in response to 10 mM glucose, 1 μM oligomycin and 50 mM 2-DG successively to calculate basal glycolytic rate, glycolytic capacity (in response to oligomycin), and glycolytic reserve (glycolytic capacity−basal rate). For GRA, ECAR was measured under basal conditions and in response to 0.5 μM rotenone+0.5 μM antimycin A and 50 mM 2-DG successively to calculate basal glycolysis and compensatory glycolysis (in response to rotenone+antimycin A). Results were normalized to total protein quantified using Pierce™ BCA Protein Assay Kit (ThermoFisher Scientific).\nHuman peripheral blood mononuclear cells (PBMC) were obtained from healthy donors by density gradient centrifugation using Ficoll-Paque™ PLUS Media (GE Healthcare). CD3^+ lymphocytes were negatively enriched using human Pan T cell isolation Kit™ (Miltenyi Biotec). […].\nExtracellular acidification rate (ECAR) and oxygen consumption rate (OCR) were measured using the Seahorse XF analyzer (Agilent technologies). Glycolysis Stress Test (GST), glycolytic rate assay (GRA) and mitochondrial stress test (MST) were purchased from Agilent technologies and performed according to the kit manufacturer's instructions. […]\nFor GST, ECAR and OCR were measured under basal conditions and in response to 10 mM glucose, 1 μM oligomycin and 50 mM 2-DG successively to calculate basal glycolytic rate, glycolytic capacity (in response to oligomycin), and glycolytic reserve (glycolytic capacity basal rate).\nFor GRA, ECAR and OCR were measured under basal conditions and in response to 0.5 μM roteone/antimycin A and 50 mM 2-DG successively to calculate basal glycolysis and compensatory glycolysis (in response to rotenone/antimycin A)."}}, "note": "Entries after “also recorded” stand apart in the source; their conditions may differ."}
{"smiles": "N#C/C(=C/c1ccc(-c2cc(Cl)ccc2Cl)o1)C(=O)Nc1cccc2ncccc12", "note": "[AGK2]", "values": [{"measurement": "capacity to block Sirt2 deacetylase activity, monitored by acetylated α-tubulin levels", "setting": "[1]", "value": "confirmed; also recorded: validated"}, {"measurement": "IFN-γ production (effector function)", "setting": "human CD3+ T cells [2]", "value": "increases; also recorded: augments"}, {"measurement": "IFN-γ production (effector function)", "setting": "human TILs", "value": "increases"}, {"measurement": "OxPhos", "setting": "human CD3+ T cells [3]", "value": "increased"}, {"measurement": "aerobic glycolysis (ECAR/PER)", "setting": "human CD3+ T cells [3]", "value": "increases; also recorded: augments"}]}
